# Test results taken from US10835624B2, “Compounds for imaging Tau protein aggregates” (AC IMMUNE S.A., priority 2016, dated 2020).
# Marks after values point to notes of the source that are not given here.
# Experiments:
# [1] = biological target: T1, Monoamine oxidase A (MAO A) (Homo sapiens, UniProt P21397); details: Vermeiren et al. 2015; cited from earlier work
# T1 sequence (P21397 1-527): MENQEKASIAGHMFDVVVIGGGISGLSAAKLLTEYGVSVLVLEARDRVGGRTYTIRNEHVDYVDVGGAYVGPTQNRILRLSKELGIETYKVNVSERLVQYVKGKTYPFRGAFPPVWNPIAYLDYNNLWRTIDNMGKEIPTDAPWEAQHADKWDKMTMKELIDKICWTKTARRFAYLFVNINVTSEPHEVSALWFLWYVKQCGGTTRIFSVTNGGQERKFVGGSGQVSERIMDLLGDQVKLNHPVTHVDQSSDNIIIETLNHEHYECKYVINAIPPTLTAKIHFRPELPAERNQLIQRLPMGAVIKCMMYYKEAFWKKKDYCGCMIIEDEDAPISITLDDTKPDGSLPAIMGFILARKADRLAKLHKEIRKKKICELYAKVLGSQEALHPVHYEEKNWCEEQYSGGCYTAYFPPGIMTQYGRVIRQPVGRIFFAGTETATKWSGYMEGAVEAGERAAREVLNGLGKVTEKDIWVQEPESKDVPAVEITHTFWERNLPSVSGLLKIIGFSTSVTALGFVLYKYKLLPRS
# [2] = biological target: T2, MAO A (Homo sapiens, UniProt P21397); test: MAO A FEH competition assay in human HC brain homogenate; type: binding; design: Low affinity to MAO A (IC50 in HC homogenate): key: −: poor; ∘: moderate; +: good; ++: very good; +++: excellent; details: for IC50: human healthy control brain homogenate, FEH competition
# T2 construct: 20 μg of human brain homogenate (without AD pathology); from tissue; host or cells: human brain homogenate without AD pathology (healthy control)
# T2 sequence (P21397 1-527): T1 sequence (P21397 1-527)
# Experimental: 20 μg of human brain homogenate (without AD pathology) was incubated with a dilution series of each test compound (1000 to 0.06 nM) in the presence of 800 Bq of ^18F-labeled MAO-A binder ([^18F]fluoroethyl harmine, FEH). The samples were shaken at 110 rpm for 45 min at 37° C. Samples were then filtered through GF/B 96 well filter plates and washed twice with 300 μL assay buffer (PBS containing 0.1% BSA and 2% DMSO). Thereafter, filter plates were sealed and a Fuji Film Imaging Plate (BAS-SR2025) was placed on top. The imaging plate was analyzed after overnight exposition using a Fuji Film BAS-5000. Non-specific signal was determined with samples containing ^18F-labeled FEH in the presence of assay buffer without brain substrate and competitor. […] The unblocked ^18F-labeled FEH signal was defined as total binding. IC50 values were calculated by Prism V6 (GraphPad) setting total binding to 100%.
# [3] = system: Tau in human brain sections (AD, PSP, PiD, HC); test: Autoradiography in human brain slices; type: binding
# Experimental: 18 micron thick frozen human brain slices and 6 micron thick human FFPE brain slices were examined via autoradiography. Brain sections were equilibrated for at least 1 h in 1×PBS solution prior to use in the experiment. Each brain section was covered with a solution of the ^18F-labeled tracer (200 Bq/μl, 500 μl) in 1×PBS. For blocking experiments with the corresponding ^19F-compound, an excess of the blocking compound (10 μM) was mixed with the ^18F-compound. The brain sections were allowed to incubate with the tracer solution at room temperature for 1 h, drained afterwards and placed in a slide holder. The slides were then washed sequentially with 1×PBS for 1 min; 70% EtOH in 1×PBS for 2 min; 30% EtOH in 1×PBS for 2 min; and 1×PBS for 1 min. The slides were allowed to air-dry before being placed on Fuji imaging plates […] for overnight exposure. The imaging plates were scanned and the signal was measured using Fuji software to produce an autoradiographic image of the brain section.
# [4] = system: Tau pathology; test: Human imaging study (dynamic PET); type: in vivo
# Experimental: In a clinical trial, subjects with AD or PSP as well as non-demented controls (NDC) underwent dynamic PET imaging for over 3 h following 370 MBq bolus injection of ^18F-3a.
# [5] = system: Tau (AD brain vs mouse brain homogenate); test: Tracer signal in AD brain vs mouse brain homogenate; type: binding, human / mouse; design: High signal to noise (AD brain/mouse brain homogenate): key: −: poor; ∘: moderate; +: good; ++: very good; +++: excellent
# [6] = system: Tau (AD brain homogenate vs HC brain homogenate); test: Tracer signal in AD brain homogenate vs healthy control brain homogenate; type: binding, human; design: High signal to noise (AD brain homogenate/HC brain homogenate) / High signal to noise (further homogenates): key to the marks not given beside the values; details: for Ratio of tracer signal in AD brain homogenates/signal in HC brain homogenates: further homogenates
structure (smiles),measurement,setting,value
[18F]c1ccc(-c2ccc3c(c2)[nH]c2ccncc23)cn1 [^18F-1],Kd,[1],1.5 nM
same,IC50,[2],5 nM
[18F]c1ccc(-c2ccc3c(n2)[nH]c2ccncc23)cn1 [^18F-2],IC50,[2],100 nM
[18F]c1cc(-c2ccc3c(n2)[nH]c2ccncc23)ccn1 [^18F-3a],Autoradiography signal in PSP brain sections,[3],strong signal
same,Autoradiography signal in PiD brain sections,[3],strong signal
same,Autoradiography signal in healthy control (HC) sections,[3],no specific signal
same,Autoradiography signal in AD brain sections,[3]; blockable with excess cold compound,strong punctated staining
same,"Binding to AD brain (Braak stage 1/3), autoradiography on human brain slices","[3]; grade, in house data",+++^a)
same,"Binding to AD brain (Braak stage 5/6), autoradiography on human brain slices","[3]; grade, in house data",+++^a)
same,"Binding to PSP, autoradiography on human brain slices","[3]; grade, in house data",+++^a)
same,"Binding to PiD, autoradiography on human brain slices","[3]; grade, in house data",+++^a)
same,Brain uptake in human subjects,"[4]; 370 MBq bolus injection, PET",good
same,Washout from non-target brain regions in human subjects,"[4]; 370 MBq bolus injection, PET",fast
same,"Uptake in temporal, parietal and frontal lobes",[4]; AD subjects,focal asymmetric uptake
same,Uptake in globus pallidus and substantia nigra,[4]; PSP subjects,focal increased uptake
same,"Uptake in choroid plexus, basal ganglia, striatum, amygdala, meninges or other off-target regions",[4]; non-demented controls (NDC),no increased uptake
same,Ratio of tracer signal in AD brain/signal in mouse brain homogenate,[5]; 18F tracers,9.2^a
same,Fold higher signal to noise ratio than 18F-1,[5]; AD brain homogenate vs whole mouse brain homogenate,4.2 fold
same,High signal to noise (AD brain/mouse brain homogenate),[5]; grade,++
same,Fold higher signal to noise ratio than 18F-1,[6]; AD brain homogenate vs HC brain homogenate,5.2 fold
same,Fold higher signal to noise ratio than 18F-1,[6]; further AD brain homogenates vs HC brain homogenate,8.2-13.5 fold
same,Ratio of tracer signal in AD brain homogenates/signal in HC brain homogenates,[6]; first of 3 values,14.0
same,Ratio of tracer signal in AD brain homogenates/signal in HC brain homogenates,[6]; second of 3 values,17.9
same,Ratio of tracer signal in AD brain homogenates/signal in HC brain homogenates,[6]; third of 3 values,33.8
same,High signal to noise (further homogenates),"[6]; grade, 3 different AD brain homogenates",+++
same,High signal to noise (AD brain homogenate/HC brain homogenate),"[6]; grade, 18F tracers",++
same,Fold higher MAO A IC50 than compound 18F-1,[2]; HC brain homogenate,220 fold
same,Fold higher MAO A IC50 than compound 18F-2,[2]; HC brain homogenate,11 fold
same,Low affinity to MAO A (IC50 in HC homogenate),"[2]; grade, non-radioactive derivatives",+++
same,IC50,[2],1100 nM
